Data on 23 molecules can be found in patent US20100075973A1, “POLO-LIKE KINASE INHIBITORS” (TAKEDA PHARMACEUTICAL COMPANY LIMITED, priority 2008, published 2010).

Each structure is given as a SMILES string. “And” between values parts separate entries of the source, which are not always exact repeats. Equal values may be shown once.

The target of data set [1] is T1, human PLK1 (Homo sapiens, UniProt P53350).
T1 construct: made in house; host or cells: Sf21 insect cells, recombinant baculovirus (pFASTBAC1, Bac-to-Bac)
Put plainly: In vitro enzymatic assay: phosphorylation of alpha casein by recombinant PLK1 (Example A). The format is biochemical. The conditions noted are these: recombinant FLAG-tagged PLK1, alpha casein substrate, 500 nmol/L ATP, [γ-32P]ATP, room temperature 40 min; read-out: pIC50 PLK1 (converted). On the procedure: Purified PLK1 may be obtained as follows. cDNA encoding human PLK1 SEQ ID No. 1, Accession Number: NM_005030 was isolated by polymerase chain reaction PCR with primers SEQ ID Nos. 2 and 3 and cloned into pcDNA4/His-Max-TOPO Invitrogen, USA according to the manufacturer's manual. PCR was performed using the vector as a template. In the PCR, primers containing sequences encoding a FLAG-tag DYKDDDDK in the amino-terminal region SEQ ID No. 4 and vector sequence SEQ ID No. 5 were used. After XbaI and XhoI digestion of the PCR product, the fragment was subcloned into pFASTBAC1 Invitrogen, USA. Recombinant baculoviruses were prepared according to the procedure of the Bac-to-Bac baculovirus expression system Invitrogen, USA. Sf21 cells were purchased from Invitrogen and grown in Sf-900 II SFM medium containing 10% fetal bovine serum, 50 gentamicin and 0.1% pluronic F-68 Invitrogen, USA at 28° C. For preparation of PLK1 enzyme, Sf21 cells were infected with recombinant baculoviruses and cultured at 28° C. for 72 h. Cells were lysed and FLAG-tagged PLK1 protein SEQ ID No. 6 was purified by affinity chromatography using anti-FLAG M2 affinity gel Sigma, USA.
The inhibition of PLK1 by the compounds was determined with the following assay that measures the phosphorylation of alpha casein by recombinant PLK1. Kinase reactions were performed at room temperature for 40 min in the kinase reaction buffer 25 mmol/L HEPES, pH 7.5, 10 mmol/L magnesium acetate, 1 mmol/L dithiothreitol containing 50 ng PLK1 enzyme, 0.1 μCi [γ-^32P]ATP, 500 nmol/L ATP and 3 μg alpha casein MP Biomedicals Inc., USA in a final volume of 50 μL. The incubation was terminated by the addition of 10% trichloroacetic acid Wako, Japan. Phosphorylated proteins were filtrated in GF/C filter plates Packard, USA with a Cell harvester Packard, USA and washed out free [γ-^32P]-ATP with 250 mmol/L phosphoric acid. Then, the plates were air dried for 60 min at 45° C., followed by the addition of 20 μL of MicroScint-O Packard, USA. The radioactivity was counted by a Top-count scintillation counter Packard, USA. The IC50 values for test compounds were calculated by Prism 3.02 GraphPad Software, USA.
pIC50 values are the negative of the log of the IC50s and may be calculated by non-linear curve fitting of the compound concentrations and fluorescence intensities to the standard pIC50 equation.

T1 sequence (P53350 whole entry): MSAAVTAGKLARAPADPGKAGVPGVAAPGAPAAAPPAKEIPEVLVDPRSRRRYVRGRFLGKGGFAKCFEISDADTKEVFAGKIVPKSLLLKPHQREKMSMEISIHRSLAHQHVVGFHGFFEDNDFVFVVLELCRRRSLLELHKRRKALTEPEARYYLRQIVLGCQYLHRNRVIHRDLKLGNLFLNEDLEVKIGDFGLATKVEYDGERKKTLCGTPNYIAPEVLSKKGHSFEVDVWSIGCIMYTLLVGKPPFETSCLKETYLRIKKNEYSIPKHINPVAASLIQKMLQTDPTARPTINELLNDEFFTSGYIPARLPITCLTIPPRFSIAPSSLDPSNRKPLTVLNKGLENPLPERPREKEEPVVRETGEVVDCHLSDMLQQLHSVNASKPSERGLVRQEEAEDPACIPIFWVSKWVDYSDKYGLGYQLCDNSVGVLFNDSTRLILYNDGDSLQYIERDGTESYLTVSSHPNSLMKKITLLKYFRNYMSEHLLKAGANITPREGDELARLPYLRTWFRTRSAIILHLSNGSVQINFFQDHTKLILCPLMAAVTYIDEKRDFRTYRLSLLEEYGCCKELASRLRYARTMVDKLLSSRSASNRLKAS

For the molecule `CC[C@@H]1c2c(C#N)ncn2-c2cnc(Nc3cc(F)c(C(=O)NC4CCC(N5CCN(CC(C)C)CC5)CC4)cc3OC)nc2N1C(C)C` (some centres unmarked) [Example 18], the melting point (usually the temperature, or range, at which the solid turns liquid) is 219 to 222 °C.
Same read-out and setting: under `CC[C@@H]1c2c(C#N)ncn2-c2cnc(Nc3ccc(C(=O)NC4CCC(N5CCN(C)CC5)CC4)cc3OC)nc2N1C1CCCC1` (some centres unmarked) [Example 2] stands 187 to 192 °C.
As for `CC[C@@H]1c2c(C#N)ncn2-c2cnc(Nc3ccc(C(=O)NC4CCN(C5CCN(CC6CC6)CC5)CC4)cc3OC)nc2N1C1CCCC1` [Example 26, (R)-4-(7-Cyano-5-cyclopentyl-6-ethyl-5,6-dihydroimidazo[1,5-f]pteridin-3-ylamino)-N-(1′-(cyclopropylmethyl)-1,4′-bipiperidin-4-yl)-3-methoxybenzamide], in data set [1], the IC50 was 1 nM.
Still for that read-out and setting: under `CC[C@@H]1c2c(C#N)ncn2-c2cnc(Nc3cc(F)c(C(=O)NC4CCN(C5CCN(CC)CC5)CC4)cc3OC)nc2N1C(C)C` [Example 20, (R)-4-(7-Cyano-6-ethyl-5-isopropyl-5,6-dihydroimidazo[1,5-f]pteridin-3-ylamino)-N-(1′-ethyl-1,4′-bipiperidin-4-yl)-2-fluoro-5-methoxybenzamide] stands 3.98 nM; under `CC[C@@H]1c2c(C#N)ncn2-c2cnc(Nc3cc(F)c(C(=O)Nc4cccc(CN5CCN(C)CC5)c4)cc3OC)nc2N1C(C)C` [Example 31, (R)-4-(7-Cyano-6-ethyl-5-isopropyl-5,6-dihydroimidazo[1,5-f]pteridin-3-ylamino)-2-fluoro-5-methoxy-N-(3-((4-methylpiperazin-1-yl)methyl)phenyl)benzamide], 10 nM.
`CC[C@@H]1c2c(C#N)ncn2-c2cnc(Nc3ccc(C(=O)NC4CCC(N5CCN(C)CC5)CC4)cc3OC)nc2N1C(C)C` (some centres unmarked) [Example 9] came in with a melting point of 195 to 198 °C.
In the case of `CC[C@@H]1c2c(C#N)ncn2-c2cnc(Nc3ccc(C(=O)NC4CCC(N5CCN(CC)CC5)CC4)cc3OC)nc2N1C1CCCC1` (some centres unmarked) [Example 3], the melting point fell in the range of 170 to 173 °C.
In the case of `CC[C@@H]1c2c(C#N)ncn2-c2cnc(Nc3ccc(C(=O)NC4CCC(N5CCN(CC(C)C)CC5)CC4)cc3OC)nc2N1C(C)C` (some centres unmarked) [Example 12], the melting point lay within 165 to 170 °C.
With `CC[C@@H]1c2c(C#N)ncn2-c2cnc(Nc3ccc(C(=O)NC4CCN(C5CCN(CC)CC5)CC4)cc3OC)nc2N1C(C)C` [Example 19, (R)-4-(7-Cyano-6-ethyl-5-isopropyl-5,6-dihydroimidazo[1,5-f]pteridin-3-ylamino)-N-(1′-ethyl-1,4′-bipiperidin-4-yl)-3-methoxybenzamide], in data set [1], the IC50 was 2 nM.
Still for that read-out and setting: under `CC[C@@H]1c2c(C#N)ncn2-c2cnc(Nc3ccc(C(=O)NC4CCN(C5CCN(CC(C)C)CC5)CC4)cc3OC)nc2N1C1CCCC1` [Example 27, (R)-4-(7-Cyano-5-cyclopentyl-6-ethyl-5,6-dihydroimidazo[1,5-f]pteridin-3-ylamino)-N-(1′-isobutyl-1,4′-bipiperidin-4-yl)-3-methoxybenzamide] stands 2 nM; under `CC[C@@H]1c2c(C#N)ncn2-c2cnc(Nc3ccc(C(=O)NC4CCN(C5CCN(CC6CC6)CC5)CC4)cc3OC)nc2N1C(C)C` [Example 21, (R)-4-(7-Cyano-6-ethyl-5-isopropyl-5,6-dihydroimidazo[1,5-f]pteridin-3-ylamino)-N-(1′-(cyclopropylmethyl)-1,4′-bipiperidin-4-yl)-3-methoxybenzamide], 3.16 nM.
In turn, `CC[C@@H]1c2c(C#N)ncn2-c2cnc(Nc3ccc(C(=O)NC4CCN(C5CCN(CC(C)C)CC5)CC4)cc3OC)nc2N1C(C)C` [Example 23, (R)-4-(7-Cyano-6-ethyl-5-isopropyl-5,6-dihydroimidazo[1,5-f]pteridin-3-ylamino)-N-(1′-isobutyl-1,4′-bipiperidin-4-yl)-3-methoxybenzamide] yielded a melting point of 165 to 170 °C.
With `CC[C@@H]1c2c(C#N)ncn2-c2cnc(Nc3ccc(C(=O)NC4CN(C5CCN(CC6CC6)CC5)C4)cc3OC)nc2N1C(C)C` [Example 37, (R)-4-(7-Cyano-6-ethyl-5-isopropyl-5,6-dihydroimidazo[1,5-f]pteridin-3-ylamino)-N-(1-(1-(cyclopropylmethyl)piperidin-4-yl)azetidin-3-yl)-3-methoxybenzamide], the IC50 in data set [1] is 3.16 nM.
As to `CC[C@@H]1c2c(C#N)ncn2-c2cnc(Nc3cc(F)c(C(=O)N[C@H]4CC[C@H](N5CCN(CC6CC6)CC5)CC4)cc3OC)nc2N1C(C)C` [Example 1], the melting point is 251 to 255 °C and 250 to 254 °C.
Still for that read-out and setting: under `CC[C@@H]1c2c(C#N)ncn2-c2cnc(Nc3cc(F)c(C(=O)NC4CCC(N5CCN(C)CC5)CC4)cc3OC)nc2N1C1CCCC1` (some centres unmarked) [Example 6] stands greater than 205 °C.
Still for that read-out and setting: under `CC[C@@H]1c2c(C#N)ncn2-c2cnc(Nc3cc(F)c(C(=O)NC4CCC(N5CCN(CC(C)C)CC5)CC4)cc3OC)nc2N1C1CCCC1` (some centres unmarked) [Example 8] stands 155 to 158 °C; under `CC[C@@H]1c2c(C#N)ncn2-c2cnc(Nc3ccc(C(=O)N[C@H]4CC[C@H](N5CCN(CC6CC6)CC5)CC4)cc3OC)nc2N1C1CCCC1` [Example 5], 186 to 190 °C.
On the same count and under the same terms, under `CC[C@@H]1c2c(C#N)ncn2-c2cnc(Nc3ccc(C(=O)NC4CCC(N5CCN(C(C)C)CC5)CC4)cc3OC)nc2N1C1CCCC1` (some centres unmarked) [Example 4] stands 216 to 220 °C.
`CC[C@@H]1c2c(C#N)ncn2-c2cnc(Nc3ccc(C(=O)NC4CCC(N5CCN(CC6CC6)CC5)CC4)cc3OC)nc2N1C(C)C` (some centres unmarked) [Example 11] showed a melting point of 198 to 204 °C.
For `CC[C@@H]1c2c(C#N)ncn2-c2cnc(Nc3cc(F)c(C(=O)NC4CN(C5CCN(CC6CC6)CC5)C4)cc3OC)nc2N1C(C)C` [Example 38, (R)-4-(7-Cyano-6-ethyl-5-isopropyl-5,6-dihydroimidazo[1,5-f]pteridin-3-ylamino)-N-(1-(1-(cyclopropylmethyl)piperidin-4-yl)azetidin-3-yl)-2-fluoro-5-methoxybenzamide], the IC50 in data set [1] is 3.16 nM.
Same read-out and setting: to `CC[C@@H]1c2c(C#N)ncn2-c2cnc(Nc3cc(F)c(C(=O)NC4CCN(C5CCN(CC6CC6)CC5)CC4)cc3OC)nc2N1C(C)C` [Example 22, (R)-4-(7-Cyano-6-ethyl-5-isopropyl-5,6-dihydroimidazo[1,5-f]pteridin-3-ylamino)-N-(1′-(cyclopropylmethyl)-1,4′-bipiperidin-4-yl)-2-fluoro-5-methoxybenzamide] belongs 3.98 nM; to `CC[C@@H]1c2c(C#N)ncn2-c2cnc(Nc3cc(F)c(C(=O)NC4CCN(C5CCN(CC(C)C)CC5)CC4)cc3OC)nc2N1C1CCCC1` [Example 29, (R)-4-(7-Cyano-5-cyclopentyl-6-ethyl-5,6-dihydroimidazo[1,5-f]pteridin-3-ylamino)-2-fluoro-N-(1′-isobutyl-1,4′-bipiperidin-4-yl)-5-methoxybenzamide], 1.26 nM.
As for `CC[C@@H]1c2c(C#N)ncn2-c2cnc(Nc3ccc(C(=O)N[C@H]4CC[C@H](N5CCN(CC6CC6)CC5)CC4)c(F)c3)nc2N1C(C)C` [Example 45], the melting point was 219 to 222 °C.
